Laboratory results: PubChem BioAssay (NCI)
Where “and” joins values, the source holds several entries; their conditions need not be identical. Identical values can stand only once.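 Each compound was tested at five concentrations against cells in 96-well plates for 48 hours. GI50: concentration for 50% inhibition of growth. TGI is the concentration that stops growth completely.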

Columns and labels:
Experiment in all cases: inhibition of tumour cell growth, NCI panel, 48 h
HT29 colon = test system: HT29 colon
LOX IMVI melanoma = test system: LOX IMVI melanoma
EKVX NSCLC = test system: EKVX NSCLC
SK-MEL-28 melanoma = test system: SK-MEL-28 melanoma
SK-OV-3 ovarian = test system: SK-OV-3 ovarian
IGROV1 ovarian = test system: IGROV1 ovarian
U251 CNS = test system: U251 CNS
NCI-H226 lung = test system: NCI-H226 lung
MCF7 breast = test system: MCF7 breast
NCI-H522 lung = test system: NCI-H522 lung

Compound	TGI (HT29 colon)	TGI (LOX IMVI melanoma)	TGI (EKVX NSCLC)	TGI (SK-MEL-28 melanoma)	TGI (SK-OV-3 ovarian)	TGI (IGROV1 ovarian)	TGI (U251 CNS)	TGI (NCI-H226 lung)	TGI (MCF7 breast)	TGI (NCI-H522 lung)	GI50 (HT29 colon)	GI50 (EKVX NSCLC)	GI50 (MCF7 breast)	GI50 (NCI-H522 lung)	GI50 (LOX IMVI melanoma)	GI50 (NCI-H226 lung)	GI50 (SK-MEL-28 melanoma)	GI50 (SK-OV-3 ovarian)	GI50 (IGROV1 ovarian)	GI50 (U251 CNS)
O=C(O)C1=C(CO)Oc2cc3c(cc2C1c1ccc2c(c1)OCO2)OCO3 (stereo not given)	> 100 µM	> 100 µM	> 100 µM	> 100 µM	> 100 µM	> 100 µM	> 100 µM	–	–	–	–	–	–	–	–	–	–	–	–	–
Nc1[nH]c(=O)nc2c1cnn2COCCO	> 100 µM	> 100 µM	> 100 µM	> 100 µM	–	> 100 µM	52.8 µM	6.36 µM	–	–	–	–	–	–	–	–	–	–	–	–
C/C=C\C1OC1(C)c1cc(=O)c2c(C)cc3c(c2o1)C(=O)c1c(O)c(C2CC(C)(N(C)C)C(OC(C)=O)C(C)O2)cc(C2CC(N(C)C)C(O)C(C)O2)c1C3=O (stereo not given)	1.93 µM	0.00485 µM	0.0224 µM	–	0.0498 µM	0.183 µM	0.0394 µM	0.018 µM	0.0401 µM	0.00964 µM	–	–	–	–	–	–	–	–	–	–
CCCCC(CC)C(=O)Oc1ccc(C(=O)c2ccccc2)c(O)c1 (stereo not given)	> 100 µM	> 100 µM	> 100 µM	> 100 µM	> 100 µM	> 100 µM	> 100 µM	–	> 100 µM	98.2 µM	–	–	–	–	–	–	–	–	–	–
c1ccc(-c2cc3nc4ccccc4nc3cc(-c3ccccc3)[nH][nH]2)cc1	> 100 µM	> 100 µM	> 100 µM	> 100 µM	39.5 µM	> 100 µM	> 100 µM	> 100 µM	> 100 µM	> 100 µM	–	–	–	–	–	–	–	–	–	–
O=P1(Oc2ccc(Cl)cc2Cl)Oc2cc3ccccc3cc2O1	> 100 µM	> 100 µM	> 100 µM	> 100 µM	> 100 µM	> 100 µM	> 100 µM	> 100 µM	> 74.4 µM	82.6 µM	–	–	–	–	–	–	–	–	–	–
C=C(C)[C@@H]1CC[C@]2(C(=O)O)CC[C@]3(C)[C@H](CC[C@@H]4[C@@]5(C)C/C(=C/c6ccco6)C(=O)C(C)(C)[C@@H]5CC[C@]43C)[C@@H]12	> 100 µM	–	> 100 µM	–	–	–	–	–	10.7 µM	9.85 µM	3.05 µM	2.73 µM	2.62 µM	2.81 µM	–	–	–	–	–	–
O=C1c2cc3c(cc2[C@@H]2C(O)[C@H]4O[C@H]4C4CCN1C42)OCO3 (stereo not given in full)	> 37.5 µM	> 37.5 µM	> 37.5 µM	> 37.5 µM	> 37.5 µM	> 37.5 µM	–	> 37.5 µM	–	> 37.5 µM	–	–	–	–	–	–	–	–	–	–
CCOC(=O)c1sc2nc(SC)nc3c2c1NC(=O)CN3c1ccc(F)cc1	> 100 µM	> 100 µM	> 100 µM	82.6 µM	57.7 µM	> 100 µM	> 100 µM	91.5 µM	> 100 µM	> 100 µM	–	–	–	–	–	–	–	–	–	–
C[C@@]12CC[C@@H](O)C[C@@H]1CC[C@H]1[C@H]2CC[C@@]2(C)[C@H](c3ccc(=O)oc3)CC[C@@]12O	0.0467 µM	0.0169 µM	0.0104 µM	0.119 µM	0.0451 µM	0.171 µM	0.0363 µM	0.0723 µM	0.0932 µM	0.021 µM	< 0.01 µM	< 0.01 µM	< 0.01 µM	< 0.01 µM	< 0.01 µM	< 0.0183 µM	< 0.0141 µM	< 0.0118 µM	< 0.01 µM	< 0.01 µM
Cc1ccc(C(=O)NC2C(=O)NC(C(C)C)C(=O)N3CCCC3C(=O)N(C)CC(=O)N(C)C(C(C)C)C(=O)OC2C)c2c1Oc1c(c(C(=O)NC3C(=O)NC(C(C)C)C(=O)N4CCCC4C(=O)N(C)CC(=O)N(C)C(C(C)C)C(=O)OC3C)c3nc(-c4ccccc4)c(=O)oc3c1C)N2 (stereo not given)	–	–	0.0944 µM and 0.0316 µM	0.0139 µM	16.1 µM	13.3 µM	–	0.00507 µM	0.0116 µM	0.0342 µM	–	–	–	–	–	–	–	–	–	–
